According to ChEMBL document CHEMBL2040735, “Synthesis, benzodiazepine receptor binding and molecular modelling of isochromeno[4,3-c]pyrazol-5(1H)-one derivatives” (Eur J Med Chem, 2012):

Organism: Bos taurus
Conditions: Brain, Membrane, 1 uM
Description: Displacement of [3H]flunitrazepam from benzodiazepine receptor in bovine brain membrane at 1 uM by liquid scintillation counting

`CN1C(=O)CN=C(c2ccccc2)c2cc(Cl)ccc21` gave an inhibition of 98%.

Organism: Bos taurus
Test: Displacement of [3H]flunitrazepam from benzodiazepine receptor in bovine brain membrane at 10 uM by liquid scintillation counting
Assay type: cell membranes
Conditions: not given

First: Cc1nn(-c2cccc(Cl)c2)c2c1c(=O)oc1ccccc12
Second: Cc1cccc(-n2nc(C)c3c(=O)oc4ccccc4c32)c1
The inhibition of the first is higher: 86% for the first, 78% for the second.

Compared with `Cc1cccc(-n2nc(C)c3oc(=O)c4ccccc4c32)c1`, `Cc1nn(-c2cccc(Cl)c2)c2c1oc(=O)c1ccccc12` is lower in inhibition: 40% for the first, 28% for the second.

First: Cc1nn(-c2ccccc2)c2c1c(=O)oc1ccccc12
Second: Cc1ccc(-n2nc(C)c3c(=O)oc4ccccc4c32)cc1
The inhibition of the first is higher: 76% for the first, 66% for the second.

Compared with `Cc1ccc(-n2nc(C)c3oc(=O)c4ccccc4c32)cc1`, `Cc1ccc2c(c1)c(=O)oc1c(C)nn(-c3ccccc3)c12` is lower in inhibition: 13% for the first, 6% for the second.

Going from `Cc1nn(-c2ccccc2)c2c1oc(=O)c1ccc(Cl)cc12` to `Cc1nn(-c2ccccc2)c2c1oc(=O)c1cc(Cl)ccc12`, the inhibition falls from 35% to 0%.

Compared with `O=c1oc2ccccc2c2c1c(-c1ccccc1)nn2-c1ccccc1`, `O=c1oc2c(-c3ccccc3)nn(-c3ccccc3)c2c2ccccc12` is lower in inhibition: 10% for the first, 5% for the second.

Going from `O=c1oc2cnn(-c3ccccc3)c2c2ccccc12` to `Cc1nn(-c2ccccc2)c2c1oc(=O)c1ccccc12`, the inhibition falls from 54% to 20%.
